From patent US20090047672A1, “Telomerase RNA Subunit and Methods of Use Thereof” (priority 2005, published 2009)

System: H2AX
Experiment: Immunoblotting of DNA damage response (H2AX phosphorylation)
Type: cell-based, human
Details: BJ fibroblasts expressing control shRNA, 10 μM for 4 hrs
From the text: The antibodies used in this study included: rabbit anti-H2AX (Novus); rabbit anti—H2AX (Upstate Biotechnology); rabbit anti-H2B (Upstate Biotechnology); mouse anti-H3 (Upstate Biotechnology); rabbit anti-H4 (Upstate Biotechnology); rabbit anti-macro H2A.1 (Upstate Biotechnology); rabbit anti-dimethyl H3 (K9) (Upstate Biotechnology); rabbit anti-acetyl H3 (Lys9) (Upstate Biotechnology); rabbit anti-acetyl H4 (K12) (Upstate Biotechnology); goat anti-phospho-specific BRCA1 (Ser1497) (Santa Cruz); rabbit anti-ATM-pS1981 (Rockland); rabbit anti-ATM-S1981 (Rockland); and mouse anti-p53 (Ab6) (Oncogene). Cells were lysed in RIPA buffer (12.5 mM NaPO4, pH7.2, 2 mM EDTA, 50 mM NaF, 1.25% NP-40, 1.25% SDS, 0.1 mM DTT) except when specific conditions are noted. For extraction under low salt conditions, cells were lysed in a buffer comprised of 20 mM Tris-HCl, pH 7.4, 150 mM NaCl, 0.1% NP40, 0.1 mM DTT. For high salt condition extraction, cells were lysed in a buffer composed of 20 mM Tris-HCl, pH 7.4, 500 mM NaCl, 0.5% NP40, 0.1 mM DTT. For acid precipitation of histones, cells were homogenized in 0.2 N H2SO4 and centrifuged. Histones were precipitated by adding ¼ volume of 100% (w/v) TCA. The pellets were suspended in 100% ethanol and centrifuged again at 13,000×g. 10 μg of protein was subjected to immunoblotting.

## CCc1c2c(nc3ccc(OC(=O)N4CCC(N5CCCCC5)CC4)cc13)-c1cc3c(c(=O)n1C2)COC(=O)[C@]3(O)CC [irinotecan]
  Phosphorylation of H2AX after treatment with chemotherapeutic agent: induced phosphorylation of H2AX
